Counter-ions that a name gives are not always drawn.
Experiments:
Experiment in all cases: CA Inhibition Assay
Settings in all cases: pH 7.4
[1] = biological target: Carbonic anhydrase 1 (Homo sapiens, UniProt P00915)
[2] = biological target: Carbonic anhydrase 2 (Homo sapiens, UniProt P00918)
[3] = biological target: Carbonic anhydrase 4 (Homo sapiens, UniProt P22748)
[4] = biological target: Carbonic anhydrase 6 (Homo sapiens, UniProt P23280)
Chain of Carbonic anhydrase 6 (P23280 whole entry): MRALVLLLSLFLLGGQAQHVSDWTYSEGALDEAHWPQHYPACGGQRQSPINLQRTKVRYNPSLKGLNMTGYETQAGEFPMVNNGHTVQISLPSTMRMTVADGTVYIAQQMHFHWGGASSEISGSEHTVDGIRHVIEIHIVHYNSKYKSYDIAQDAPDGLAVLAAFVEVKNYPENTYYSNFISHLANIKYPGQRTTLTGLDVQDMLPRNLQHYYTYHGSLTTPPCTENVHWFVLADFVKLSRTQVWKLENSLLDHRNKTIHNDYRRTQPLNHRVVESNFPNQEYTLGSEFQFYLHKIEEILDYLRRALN

Chain of Carbonic anhydrase 1 (P00915 whole entry): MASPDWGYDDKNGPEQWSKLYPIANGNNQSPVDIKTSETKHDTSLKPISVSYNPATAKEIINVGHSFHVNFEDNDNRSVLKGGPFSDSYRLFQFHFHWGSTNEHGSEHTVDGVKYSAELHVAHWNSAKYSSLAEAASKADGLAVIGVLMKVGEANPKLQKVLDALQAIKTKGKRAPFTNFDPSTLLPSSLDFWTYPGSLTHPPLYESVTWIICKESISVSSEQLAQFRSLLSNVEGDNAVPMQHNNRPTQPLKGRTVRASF
Chain of Carbonic anhydrase 4 (P22748 whole entry): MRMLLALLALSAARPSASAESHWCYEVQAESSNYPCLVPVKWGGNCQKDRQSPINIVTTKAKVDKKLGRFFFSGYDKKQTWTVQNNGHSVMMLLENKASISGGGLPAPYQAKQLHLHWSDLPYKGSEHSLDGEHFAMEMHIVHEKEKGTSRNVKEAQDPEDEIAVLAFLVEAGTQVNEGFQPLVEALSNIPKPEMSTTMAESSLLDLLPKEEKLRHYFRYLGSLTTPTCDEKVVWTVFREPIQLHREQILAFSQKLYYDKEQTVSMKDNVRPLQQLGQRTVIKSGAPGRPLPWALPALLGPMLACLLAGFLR

SMILES | Ki [1] [µM] | Ki [2] [µM] | Ki [3] [µM] | Ki [4] [µM]
O[C@@H]1C2C[C@H](O)C1c1ccccc12 (stereo partly drawn) [9(R(S))-Hydroxy-1,2,3,4-tetrahydro-1,4-methanonaphthalen-2(R(S))-diol (9)] | 142 | 23.7 | 234 | 278
O[C@@H]1CCCC[C@H]1O [(1R,2R)-trans-1,2-cyclohexanediol] | 135 | 4.68 | 18.8 | 76.2
O=S(=O)(O)O[C@@H]1CC=CC[C@H]1O [trans-(1R(S),6R(S))-6-Hydroxycyclohex-3-enyl hydrogen sulfate (4)] | 41.3 | 2.13 | 13.7 | 93.1
O=S(=O)(O)O[C@H]1CC2c3ccccc3C1[C@@H]2O (stereo partly drawn) [9(R(S))-Hydroxy-1,2,3,4-tetrahydro-1,4-methanonaphthalen-2(R(S))-yl sulfate (8)] | 32.7 | 10.4 | 199 | 221
O[C@@H]1Cc2ccccc2C[C@H]1O [trans-(2R(S),3R(S))-1,2,3,4-Tetrahydronaphthalene-2,3-diol (11)] | 423 | 32.4 | 77.9 | 127
O=S(=O)(O)O[C@@H]1CC/C=C\CC[C@H]1O [trans-(1R(S),8R(S),Z)-8-Hydroxycyclooct-4-enyl hydrogen sulfate (6)] | 77.2 | 5.41 | 16.3 | 123
